Key:
3T3-L1 adipocytes = experiment: 3T3-L1 adipocyte differentiation, Oil Red O staining; assay type: cell-based, mouse; conditions: treated together with rosiglitazone, each 25 μM
Experimental: A mouse preadipocyte 3T3-L1 cell line was cultured in DMEM containing 10% […] (CS) and 1% P/S. For differentiation of 3T3-L1, 10% FBS and 1% P/S were used. The cells were cultured in a 37° C. incubator humidified with 5% CO2 atmosphere.
3T3-L1 cells were seeded in a 12-well plate at a density of 5×10^4 cells/well. […] On day 2 of MDI addition, the medium was replaced with 1 μg/ml insulin.
After 2 days, the medium was replaced with DMEM containing 10% FBS and 1% P/S, and treated with a drug. The medium was replaced with fresh DMEM containing 10% FBS and 1% P/S, and treated with the drug three times every 2 days. Finally, the medium was replaced with DMEM containing only the drug in a serum-free state (serum starvation). After 2 days, differentiation of 3T3-L1 was completed.
After the differentiation of 3T3-L1 in the 12-well plate was completed, the cells were fixed with 4% paraformaldehyde and stained with an Oil Red O solution, and then the stained samples were photographed under a microscope (Nikon Eclipse Ti-s). An Oil Red O dye of the samples was dissolved in isopropanol, detected by a spectrophotometer at 492 nm, and the lipid droplet size distribution was measured using ImageJ. OCT-embedded liver samples were stained according to the Roy Ellis protocol. […]

high-fat diet mice [1] = experiment: Serum analysis of high-fat diet mice; assay type: in vivo, C57BL/6J mice; conditions: 5 mg/kg/day oral, 60% HFD
Experimental: (§1) The care and use of experimental animals were carried out with the approval of the Institutional Animal Care and Use Committee of Pohang University of Science and Technology. C57BL/6J mice were purchased from Japan SLC, Inc. 50 four-week-old male C57/BL/6J mice were acclimated for 2 weeks. The mice were randomly divided and orally administered with vehicle or 5 mg/kg/day of D6 or WY14643 for 13 weeks (oral gavage), and obesity was induced by a 60% high-fat diet (#D12492, Research diets, NJ, USA). Body weights and food intakes were measured weekly from 6 weeks of age, and after 16 weeks of age, adipose tissue and muscle volumes were measured using a Trimodality imaging system.
Mouse blood was obtained by cardiac puncture and incubated at room temperature for 30 minutes. Next, the blood sample was centrifuged at 3,000 rpm for 30 minutes at 4° C., and then the supernatant was collected and analyzed.
To confirm a metabolic disease inhibitory effect of the compound represented by Chemical Formula 1 through animal experiments, mice were acclimated for 2 weeks, and then obesity was induced by feeding a 60% high fat diet (HFD) and orally administered with vehicle or 5 mg/kg/day of the compound represented by Chemical Formula 1 (D6) or WY14643 for 13 weeks. Experiments such as IP-GTT, IP-ITT, and micro-CT were performed at the week 10 of drug administration (FIG. 5).

high-fat diet mice [2] = experiment: Histology of adipose tissues of high-fat diet mice (H&E); assay type: in vivo, C57BL/6J mice; conditions: 5 mg/kg/day oral, 60% HFD
Experimental: as §1
Mouse tissues were fixed with 10% formalin solution (Sigma-Aldrich, St. Louis, MO, USA), and paraffin-embedded tissues were segmented and stained with hematoxylin and eosin (H&E) staining and Sirius Red staining (IHC world, Woodstock, USA).
To observe the effects of the compound represented by Chemical Formula 1 on metabolic diseases, biopsy was performed on adipose tissues of high-fat diet mice.

## COc1ccc(-c2cc(=O)oc3c(C)c(OC(=O)[C@H](Cc4c[nH]c5ccccc45)NC(=O)OC(C)(C)C)ccc23)cc1 [Chemical Formula 1, [4-(4-methoxyphenyl)-8-methyl-2-oxochromen-7-yl] (2S)-3-(1H-indol-3-yl)-2-[(2-methylpropan-2-yl)oxycarbonylamino]propanoate]
3T3-L1 adipocytes; FIG. 4 right
  lipid droplet size distribution in adipocytes: effectively reduced
3T3-L1 adipocytes; FIGS. 3 and 4 left
  lipid accumulation in adipocytes increased by rosiglitazone (Oil Red O): reduced
high-fat diet mice [1]; FIG. 12
  blood sugar (serum glucose): significantly reduced
high-fat diet mice [1]; FIG. 13
  blood lipids (LDLC): significantly reduced
high-fat diet mice [2]; FIG. 14
  adipocyte sizes in adipose tissue (H&E staining): reduced
high-fat diet mice [2]; FIG. 15
  adipocyte size distribution, brown adipose tissue (BAT): reducing adipocyte sizes
  adipocyte size distribution, epididymal white adipose tissue (eWAT): reducing adipocyte sizes
  adipocyte size distribution, inguinal WAT (iWAT): reducing adipocyte sizes
